Values quoted from earlier work, collected in US20240261254A1, “DIHYDROMYRICETIN NANOEMULSION FORMULATIONS AND METHODS FOR FORMING THEM” (Cheers Health, Inc., priority 2018, published 2024).

BCS class (low solubility and permeability): BCS class IV | oral bioavailability (reference [39]): less than 5%
SMILES: O=C1c2c(O)cc(O)cc2O[C@H](c2cc(O)c(O)c(O)c2)[C@H]1O [DHM, dihydromyricetin]
